Data taken from PMC9781199, “Rational-Based Discovery of Novel β-Carboline Derivatives as Potential Antimalarials: From In Silico Identification of Novel Targets to Inhibition of Experimental Cerebral Malaria” (Pathogens, 2022).
Several values for one entry are separate records, joined by “and”; a condition that tells them apart may be missing. Identical values can stand only once. Like-named read-outs stand apart in the source and are kept apart here.

Tests used:
[1] = test system: human pulmonary fibroblast cells WI-26VA4; assay: In vitro cytotoxicity on mammalian cells, MTT assay; type: cell-based; settings: read-out: WI-26-VA4 IC50 ± SD
Description: In vitro cytotoxicity of the compounds was assessed against human pulmonary fibroblast cells WI-26VA4 (ATCC CCL-95.1, USA), by 3-(4,5-dimethyl-2-thiazolyl)-2, 5-diphenyl-2H-tetrazolium bromide (MTT assay). Cells were cultured in a RPMI-1640 medium supplemented with 10% heat-inactivated fetal bovine serum in a 96-well plate. Compounds were diluted in different concentrations ranging from 100 to 1 μM and incubated with the cells for 48 h in a 5% CO2 atmosphere at 37 °C. The optical density was determined at 540 nm […] (Spectra Max340PC384, Molecular Devices, Sunnyvale, CA, USA). The minimum lethal dose for 50% of the cells (IC50) was determined as previously described.

[2] = test system: Plasmodium falciparum W2 strain (CQ-resistant); assay: In vitro antiplasmodial activity, SYBR test; type: cell-based; settings: for SI (selectivity index): ratio between cytotoxic (WI-26-VA4) and antiplasmodial (W2) activities
Description: Continuous culture was maintained as previously described. In vitro antiplasmodial activity of the seven compounds against the P. falciparum culture was evaluated using the SYBR test as previously described. Compounds were diluted to concentrations ranging from 10 to 0.0001 μM. […] The plate was read in a fluorometer (Fluoroskan Ascent, Thermo Laboratories) with excitation at 485 nm and an emission of […]. All experiments were performed in triplicate. The results were expressed as the mean of minimum lethal dose for 50% of the culture (IC50).
Selectivity index (SI) is the ratio between the cytotoxic and antiplasmodial activities of each compound tested. The values greater than 10 were considered indicative of lack of cytoxicity, whereas the substances with values below 10 were considered toxic.

[3] = test system: Plasmodium berghei ANKA; assay: Curative test in the mouse model of experimental cerebral malaria; type: in vivo, C57BL/6 mice infected with P. berghei ANKA; settings: for % Reduction of parasitemia, 5th dpi / Parasitemia ± SD, 5th dpi / % Reduction of parasitemia, 7th dpi / Parasitemia ± SD, 7th dpi: 10 mg/Kg oral, day 3 to 7 p.i.
[4] = test system: Plasmodium berghei ANKA; assay: Suppressive modified test in the mouse model of experimental cerebral malaria; type: in vivo, C57BL/6 mice infected with P. berghei ANKA; settings: for Parasitemia ± SD, 5th dpi / % Reduction of parasitemia, 5th dpi / % Reduction of parasitemia, 7th dpi / Parasitemia ± SD, 7th dpi: suppressive test, 10 mg/Kg oral for five days from 4 h after infection
Description: The animals (n = 5/cage) were housed in ALESCO® climate-controlled cabinets with controlled air flow, a temperature of 22 ± 2 °C and light control, respecting the animals’ circadian rhythm (light/dark cycle of 12 h), with standard rodent food and water ad libitum.
To carry out the proposed experiments, the murine model of ECM was used to assess the antimalarial activity of the compounds. Plasmodium berghei ANKA was kindly provided by Claudio Romero Marinho (Federal University of São Paulo-Brazil), and was used to conduct the infections which were performed by intraperitoneal (i.p.) injection of 10^5 parasitized red blood cells (pRBCs) obtained from infected donor mice, as previously described. Reduced responsiveness to external stimuli, ataxia, paralysis, coma, and/or convulsions were considered clinical signals of ECM [44].
In the suppressive modified test, mice were treated daily by oral gavage for five consecutive days, starting four hours after infection.
Parasitemia was monitored using giemsa-stained blood smears and the inhibition of parasite multiplication (IPM) was calculated by the formula: [(A–B)/A] × 100, where A = parasitemia of the PbA, and B = parasitemia of the group treated with the compounds. The clinical symptoms were evaluated using the rapid murine coma and behavior scale (RMCBS) from day 5 p.i. being maintained until the end of experimentation. The RMCBS consists of 10 parameters (gait, balance, motor performance, body position, limb strength, touch escape, pinna reflex, toe pinch, aggression, and grooming). Each parameter is scored 0 to 2, with 0 being the lowest function and 2 being the highest. Animals with clinical score ≤ 5 were euthanized. The survival rate (SR) was calculated based on the number of alive animals after 14 days of clinical evaluation. […]

[5] = test system: NO production in murine peritoneal macrophages; assay: NO production by LPS/IFN-γ stimulated macrophages, Griess method; type: cell-based, BALB/c mice; settings: macrophages stimulated with LPS and IFN-γ, 18 to 150 μM, 48 h, p < 0.05
Description: NO production was determined in the culture supernatants of macrophages after being incubated for 48 h in the presence of compound 10 ([…]) and stimulated with LPS at 1 μg/mL and IFN-γ at 1 ng/mL. Negative control was stimulated with LPS and IFN-γ and treated with 0.06% DMSO (vehicle). The cells were incubated for 48 h at 37 °C and 5% CO2 atmosphere. Subsequently, NO production was evaluated by the Griess method (an indirect NO measurement by nitrite dosing) in the recovered culture supernatant from the 48 h stimuli and treatment as described by. The quantity of NO (μM) was determined by comparison with a standard sodium nitrite solution. The spectrophotometric measurement was performed at 540 nm and the experiment was performed in triplicate.

[6] = test system: peritoneal macrophages of BALB/c mice; assay: Cytotoxicity on peritoneal macrophages, MTT method; type: cell-based; settings: 18 to 150 μM, 48 h
Description: Macrophages obtained from the peritoneal cavity of BALB/c mice previously inoculated with 3% thioglycollate medium for the evaluation of cell viability were used. The macrophages were seeded in culture bottles with a RPMI-1640 medium supplemented with 2 mM L-glutamine, 100 µg/mL antibiotics (streptomycin and penicillin), 5% fetal bovine serum (FBS) and kept in an incubator at 5% CO2 atmosphere at 37 °C until the day of the test. The protocol was approved by the Ethical Committee for Animal Research of Federal University of Juiz de Fora (n° 007/2018-CEUA).
Cytotoxicity was assessed by cell viability using the MTT method. Briefly, the macrophages at 2 × 10^6 cells/well were transferred to 96-well microplates and treated with compound 10 at concentrations of 18 to 150 μM. For the negative control, cells were treated only with 0.06% DMSO (vehicle). The cells were incubated for 48 h at 37 °C and 5% CO2 atmosphere. Absorbance was read at 570 nm and cell viability (%) of macrophages was obtained by the following formula: % viable cells = [(AUSample)/AU0.06% DMSO] × 100, where: AUSample: Absorbance was measured after treatment of cells with the sample; AU0.06% DMSO: Absorbance was measured after treatment of cells with 0.06% DMSO. The experiment was performed in triplicate.

[7] = WI26VA4, human fibroblasts, MTT, 48 h, highest concentration 100 μM
[8] = Plasmodium falciparum, W2 strain (chloroquine-resistant), SYBR test, triplicate, read-out: P. falciparum IC50 ± SD
[9] = suppressive treatment regimen, 10 mg/kg oral

| Molecule | IC50 [1, 7] | IC50 [2, 8] | SI (selectivity index) [2] | % Reduction of parasitemia, 5th dpi [3] | Parasitemia ± SD, 5th dpi [3] | % Reduction of parasitemia, 7th dpi [3] | Parasitemia ± SD, 7th dpi [3] | Parasitemia ± SD, 5th dpi [4] | % Reduction of parasitemia, 7th dpi [4] | Parasitemia ± SD, 7th dpi [4] | Prevention of the development of CM (share of animals) ([3]; 10 mg/kg oral) | also measured |
| --- | --- | --- | --- | --- | --- | --- | --- | --- | --- | --- | --- | --- |
| COC(=O)[C@@H]1Cc2c([nH]c3ccccc23)[C@@H](c2ccccc2OC)N1 [Compound 4, Methyl (1R,3S)-1-(2-Methoxy)-2,3,4,9-tetrahydro-1H-pyrido[3,4-b]indole-3-carboxylate] | > 100 µM | 1.04 ± 0.021 µM | >96 | 75.16% | 0.79 ± 0.63 | 20.00% | 5.48± 3.64 | 1.88 ± 2.46 | 9.78% | 6.18 ± 4.75 |  | Animals alive until the 14th dpi (without CM) ([3]; 10 mg/kg oral): 90%; % Reduction of parasitemia, 5th dpi ([4]; 10 mg/kg): 40% and 40.88%; Protection against CM (share of animals) [4, 9]: 60% |
| artemisinin [reference compound] |  |  |  |  |  |  |  |  |  |  |  | IC50 ([1]; human fibroblasts, MTT, 48 h, highest concentration 100 μM): > 100 µM; IC50 ([2]; W2 strain (chloroquine-resistant), SYBR test, triplicate, read-out: P. falciparum IC50 ± SD): 0.095 ± 0.01 µM |
| COc1cc(C2NCCc3c2[nH]c2ccccc32)cc(OC)c1OC (stereo not drawn) [Compound 9, 1-(3,4,5-Trimethoxyphenyl)-2,3,4,9-tetrahydro-1H-pyrido[3,4-b]indole] | > 100 µM | 1.12 ± 0.014 µM | >89 |  |  |  |  |  |  |  |  |  |
| COc1cc(-c2nccc3c2[nH]c2ccccc23)cc(OC)c1OC [Compound 10, 1-(3,4,5-Trimethoxyphenyl)-9H-pyrido[3,4-b]indole] | > 100 µM | 0.51 ± 0.011 µM | >196 |  | 1.02 ± 0.93 | 0% | 8.37 ± 2.26 | 0.57 ± 0.94 | 45.69% | 3.72 ± 3.93 | 70% | NO levels (nitrite equivalent) [5]: reduce NO levels at all concentrations tested; % Reduction of parasitemia, 5th dpi ([3]; 10 mg/kg): 67.9% and 67.92%; Toxicity for peritoneal macrophages (cell viability, MTT) [6]: no toxicity; % Reduction of parasitemia, 5th dpi ([4]; 10 mg/kg): 82% and 82.07% |
| COC(=O)[C@@H]1Cc2c([nH]c3ccccc23)[C@H](c2ccccc2OC)N1 [Compound 3, Methyl (1S,3S)-1-(2-Methoxy)-2,3,4,9-tetrahydro-1H-pyrido[3,4-b]indole-3-carboxylate] | > 100 µM | 0.71 ± 0.012 µM | >141 | 41.19% | 1.87 ± 1.02 | 0% | 7.50 ± 2.49 | 3.56 ± 2.57 | 0% | 7.96 ± 3.26 |  | % Reduction of parasitemia, 5th dpi [4]: 0.00%; Inhibition of parasite growth (in words) [4, 9]: not effective |
| COC(=O)[C@@H]1Cc2c([nH]c3ccccc23)[C@H](c2ccccc2Cl)N1 [Compound 5, Methyl (1S,3S)-1-(2-Chloro)-2,3,4,9-tetrahydro-1H-pyrido[3,4-b]indole-3-carboxylate] | > 100 µM | 1.41 ± 0.018 µM | >71 | 0.00% | 5.00 ± 1.59 | 0% | 7.20 ± 4.57 |  |  |  | No protective effect |  |
| CCN(CC)c1ccc(C2NCCc3c2[nH]c2ccccc32)c(O)c1 (stereo not drawn) [Compound 8, 5-(Diethylamino)-2-(2,3,4,9-tetrahydro-1H-pyrido[3,4-b]indol-1-yl)phenol] | > 100 µM | 1.82 ± 0.011 µM | >55 |  |  |  |  |  |  |  |  |  |
| COC(=O)[C@@H]1Cc2c([nH]c3ccccc23)[C@@H](c2ccccc2Cl)N1 [Compound 6, Methyl (1R,3S)-1-(2-Chloro)-2,3,4,9-tetrahydro-1H-pyrido[3,4-b]indole-3-carboxylate] | > 100 µM | 0.67 ± 0.019 µM | >149 | 64.36% | 1.13 ± 0.48 |  |  |  |  |  | No protective effect |  |
| CCN(CC)CCCC(C)Nc1ccnc2cc(Cl)ccc12 (stereo not drawn) [CQ, chloroquine, reference compound] |  |  |  |  |  | 96.1% | 0.21 ± 0.27 | 0.24 ± 0.05 | 96.1% | 0.21 ± 0.27 |  | IC50 ([1]; Homo sapiens, WI26VA4, 48 h): > 100 µM; IC50 ([2]; Plasmodium falciparum, W2, read-out: P. falciparum IC50 ± SD): 0.59 ± 0.015 µM; % Reduction of parasitemia, 5th dpi [4]: 96.5% |
